Laboratory results as given in patent publication US5238922A, “Inhibitors of farnesyl protein transferase” (Merck & Co., Inc., priority 1991, dated 1993).

Experiments:
[1] = test system: Ras farnesylation in the v-ras cell line (viral Ha-ras p21); assay: In vivo ras farnesylation assay (v-ras cell line); assay type: cell-based
Procedure: The cell line used in this assay was the v-ras line, which expressed viral Ha-ras p21. The assay was performed essentially as described in DeClue, J. E. et. al., Cancer Research 51, 712-717, (1991). Cells in 10 cm dishes at 50-75% confluency were treated with the test compound (final concentration of solvent, methanol or dimethyl sulfoxide, was 0.1%). After 4 hours at 37° C., the cells were labelled in 3 ml methionine-free DMEM supplemented with 10% regular DMEM, 2% fetal bovine serum and 400 μCi[^35 S]methionine (1000 Ci/mmol). After an additional 20 hours, the cells were lysed in 1 ml lysis buffer (1% NP40/20 mM HEPES, pH 7.5/5 mM MgCl2 /1 mM DTT/10 μg/ml aprotinen/2 μg/ml leupeptin/2 μg/ml antipain/0.5 mM PMSF) and the lysates cleared by centrifugation at 100,000×g for 45 min. Aliqouts of lysates containing equal numbers of acid-precipitable counts were bought to 1 ml with IP buffer (lysis buffer lacking DTT) and immunoprecipitated with the ras-specific monoclonal antibody Y13-259 (Furth, M. E. et. al., J. Virol. 43, 294-304, (1982)). Following a 2 hour antibody incubation at 4° C., 200 μl of a 25% suspension of protein A-Sepharose coated with rabbit anti rat IgG was added for 45 min. […]

[2] = biological target: T1, Farnesyl-protein transferase (FTase) from bovine brain (Bos taurus, UniProt P29702+P49355); assay: In vitro inhibition of Ras Farnesyl Transferase; assay type: biochemical; conditions: partially purified bovine brain FTase; Ras-CVLS 3.5 μM, 0.25 μM [3H]FPP; read-out: IC50 (concentration of compound which gives 50% inhibition of FTase)
T1 construct: incubated with this partially purified enzyme preparation; from tissue; host or cells: bovine brain
Procedure: Farnesyl-protein transferase (FTase) from bovine brain was chromatographed on DEAE-Sephacel (Pharmacia, 0-0.8M NaCl gradient elution), N-octyl agarose (Sigma, 0-0.6M NaCl gradient elution),, and a mono Q HPLC column (Pharmacia, 0-0.3M NaCl gradient). Ras-CVLS at 3.5 μM, 0.25 μM [^3 H]FPP, and the indicated compounds were incubated with this partially purified enzyme preparation. The FTase data presented below is a measurement of the ability of the test compound to inhibit Ras farnesylation in vitro.

Compound | Inhibition of Ras Farnesylation in the v-ras cell line ([1]; at 10 μm test concentration) | IC50 [2] | Inhibition of Ras Farnesylation in the v-ras cell line ([1]; at 100 μm test concentration)
CCOC(=O)[C@H](CCSC)NC(=O)[C@H](Cc1ccccc1)NC(=O)[C@@H](NC[C@@H](N)CS)[C@@H](C)CC [N-(2(R)-amino-3-mercaptopropyl)isoleucyl-phenylalanyl-methionine ethyl ester] | 10% | 2000 nM | 
CSCC[C@H](NC(=O)[C@H](Cc1ccccc1)NC[C@@H](NC(=O)[C@@H](N)CS)C(C)C)C(=O)O [N-(3-methyl-2(S)-(cysteinylamino)but-1-yl)phenylalanyl-methionine] |  | 7 nM | 
CC[C@H](C)[C@@H](CN[C@@H](Cc1ccccc1)C(=O)N[C@@H](CCSC)C(=O)O)NC[C@@H](N)CS [N-[2(S)-(2(R)-amino-3-mercaptopropylamino)-3(S)-methylpentyl]phenylalanyl-methionine] |  | 4.7 nM | 30%
